Laboratory results reported in patent publication US6486179B2, “Use of protein kinase C inhibitors to enhance the clinical efficacy of oncolytic agents and radiation therapy” (Eli Lilly and Company, priority 1996, dated 2002).

Legend:
[1] = tested on: protein kinase C; conditions: statement in words, cited from earlier work
[2] = tested on: Human leukemia cells U937; test: Viability of U937 cells after γ-irradiation (propidium iodide exclusion, FACS); type: cell-based; conditions: 3 nM bryostatin 1 for 24 hours, then 500 or 1000 rads; viability 72 hours after irradiation; triplicate
Description: Human leukemia cells U937 were treated for 24 hours with either 3 nM bryostatin 1 or the control solution, i.e., the vehicle for bryostatin 1. The cells were then irradiated with either 500 or 1000 rads of γ-irradiation. Seventy-two hours after irradiation, cellular viability was examined using propidium iodide exclusion and quantified by FACS analysis as previously described in Ways et al., Cell Growth & Differentiation 1994, 5: 1195-1203. Viability assays were performed in triplicate. […] Similar results were obtained in several repeated experiments.

[3] = biological target: T1, PKC-β (Homo sapiens, UniProt P05771); test: Western blot of PKC-β in bryostatin 1 treated U937 cells; type: cell-based
T1 construct: endogenous in cells; host or cells: U937 human leukemia cells
Description: Human leukemia cells U937 in the amount of 0.5×10^6 were treated with various amount of bryostatin 1 for 24 hours. Subsequently, the cells were solubilized for preparation of protein samples according to a routine procedure. The protein samples from bryostatin treated cells were then used in Western blot analysis with a protein kinase C-β specific antiserum previously described in Ways et al., Cell Growth & Differentiation 1994, 5: 1195-1203. […] In a repeated experiment, similar results were obtained.

T1 sequence (P05771 whole entry): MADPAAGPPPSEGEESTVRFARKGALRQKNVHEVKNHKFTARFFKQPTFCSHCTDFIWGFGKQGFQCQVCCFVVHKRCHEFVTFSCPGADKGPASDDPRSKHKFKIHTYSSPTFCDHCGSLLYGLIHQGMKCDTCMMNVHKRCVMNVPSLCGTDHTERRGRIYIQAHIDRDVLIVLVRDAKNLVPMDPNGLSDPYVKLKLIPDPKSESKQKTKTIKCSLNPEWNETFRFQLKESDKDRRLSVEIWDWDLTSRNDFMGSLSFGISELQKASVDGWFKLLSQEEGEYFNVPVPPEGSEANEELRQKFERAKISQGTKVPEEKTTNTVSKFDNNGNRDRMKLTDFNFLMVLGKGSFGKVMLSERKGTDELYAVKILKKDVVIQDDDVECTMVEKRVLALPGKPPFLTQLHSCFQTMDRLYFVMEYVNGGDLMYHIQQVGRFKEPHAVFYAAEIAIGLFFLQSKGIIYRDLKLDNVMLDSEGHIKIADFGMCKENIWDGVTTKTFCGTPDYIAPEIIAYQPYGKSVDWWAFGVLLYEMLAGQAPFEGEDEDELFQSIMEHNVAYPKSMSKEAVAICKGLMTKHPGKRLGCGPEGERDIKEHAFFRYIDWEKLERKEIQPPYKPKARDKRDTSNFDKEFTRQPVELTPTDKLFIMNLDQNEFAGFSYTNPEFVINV

| Structure (SMILES) | isozyme selectivity ([1]; selective to protein kinase C over other kinases) | protein kinase C inhibition ([1]; no value) | γ-irradiation-induced apoptosis [2] | time within which bryostatin treatment caused PKC-β activity to decrease ([3]; 1 nM bryostatin) [h] | time within which bryostatin treatment caused PKC-β activity to decrease ([3]; 10 nM bryostatin) [h] |
| --- | --- | --- | --- | --- | --- |
| CN(C)C[C@@H]1CCn2cc(c3ccccc32)C2=C(C(=O)NC2=O)c2cn(c3ccccc23)CCO1.Cl [Example 5g, (S)-3,4-[N, N′-1,1′-((2″-ethoxy)-3′″(O)-4′″-(N,N-dimethylamino)-butane)-bis-(3,3′-indolyl)]-1(H)-pyrrole-2,5-dione Hydrochloride Salt] | selective for the beta-1 and beta-2 isozymes | potent protein kinase C inhibitor |  |  |  |
| CCC/C=C/C=C/C(=O)O[C@H]1/C(=C/C(=O)OC)C[C@H]2C[C@H]([C@@H](C)O)OC(=O)C[C@H](O)C[C@@H]3C[C@H](OC(C)=O)C(C)(C)[C@](O)(C[C@@H]4C/C(=C/C(=O)OC)C[C@H](/C=C/C(C)(C)[C@]1(O)O2)O4)O3 [bryostatin 1] |  |  | enhanced | ≤ 24 | ≤ 2 |
